From patent publication US20100237530A1, “COMPRESSED PREPARATION” (Daiichi Sankyo Company, Limited, priority 2006, published 2010) come the findings set out here.

The data set can be described thus: Dissolution Test (Paddle Method), Method 2 of the Japanese Pharmacopoeia 14th Revised Edition. The class given is physicochemical. The settings on record: dissolution rate of olmesartan medoxomil, paddle 50 revolutions per minute, 900 mL JP-2, absorptiometry, average of two tablets. As for the experimental part:
Dissolution properties were measured for the drug products as obtained in the Examples and Comparative Examples by the following method, and the results are shown in the Table.
Testing was carried out in accordance with Method 2 of the Dissolution Test (Paddle Method) described in the 14th Revised Edition of the Japanese Pharmacopoeia, at the paddle revolution speed of 50 revolutions per minute and using 900 mL of Japanese Pharmacopoeia Solution 2 (JP-2) for the test solution. The test solution was sampled at 30 minutes and 60 minutes after the start of testing, and the dissolution rate of olmesartan medoxomil was measured by absorptiometry. [Toyama Sangyo Co., Ltd.: DISSOLUTION TESTER NTR-6000, Shimadzu Corporation: SPECTROPHOTOMETER UV-1600] Tests were carried out for two tablets, and average values are shown.

For `CCCc1nc(C(C)(C)O)c(C(=O)OCc2oc(=O)oc2C)n1Cc1ccc(-c2ccccc2-c2nnn[nH]2)cc1` [Comparative Example C-3, Olmesartan medoxomil], the “Dissolution rate (%) After 30 minutes” value (sampled at 30 minutes) is reported as 60.0%. The “Dissolution rate (%) After 60 minutes” value (sampled at 60 minutes) amounted to 68.4%.
